The values that follow come from ChEMBL document CHEMBL3994655, “Methylsulfonyl benzothiazoles (MSBT) derivatives: Search for new potential antimicrobial and anticancer agents” (2017).

Values after ≈ are worked out from the molar mass of the structure shown. Where a name gives a salt, the structure may show the parent alone.

For orientation: MIC means the least concentration at which growth counts as inhibited. For orientation: GI50 means the concentration at which growth is held to half of that of the control. The term LC50 denotes the concentration lethal to half of the exposed cells or organisms. A high value points to lower toxicity. As usually defined, the TGI is the concentration at which net growth stops.

Assay [1] has as its system Staphylococcus aureus. Put plainly: Antibacterial activity against Staphylococcus aureus 209P assessed as zone of inhibition at 5 mg/ml by agar well diffusion method. The assay is classed as functional. As to conditions: read-out: DIZ. For orientation: In agar diffusion tests the substance spreads into inoculated agar from a disc or well.
In assay [2] the test system is HeLa. Put plainly: Cytotoxicity against human HeLa cells assessed as cell growth at 10^-7 M after 48 hrs by SRB assay relative to control. In kind it is functional. The settings on record: read-out: Activity. On the technique in general: In SRB staining, fixed cells bind dye roughly in proportion to their protein.
Assay [3] has as its system Escherichia coli. Kind of assay: Antibacterial activity against Escherichia coli ATCC 35421 assessed as zone of inhibition at 5 mg/ml by agar well diffusion method. The assay is classed as functional. The settings on record: read-out: DIZ.
In assay [4] the test system is Staphylococcus aureus. Kind of assay: Antibacterial activity against Staphylococcus aureus 209P after 24 to 48 hrs by macro-broth dilution method. The assay is classed as functional. (In general: Broth dilution looks for growth in wells or tubes with falling amounts of substance.)
Assay [5] concerns Staphylococcus epidermidis. Kind of assay: Antibacterial activity against Staphylococcus epidermidis 209E after 24 to 48 hrs by macro-broth dilution method. In kind it is functional.
The subject of assay [6] is Staphylococcus aureus. Kind of assay: Antibacterial activity against Staphylococcus aureus 209P assessed as zone of inhibition at 1 mg/ml by agar well diffusion method. The assay is classed as functional. The settings on record: read-out: DIZ.
Assay [7] deals with Staphylococcus aureus. Put plainly: Antibacterial activity against methicillin-resistant Staphylococcus aureus 3710 after 24 to 48 hrs by macro-broth dilution method. The assay is classed as functional.
In assay [8] the test system is HeLa. Kind of assay: Cytotoxicity against human HeLa cells assessed as cell growth at 10^-4 M after 48 hrs by SRB assay relative to control. In kind it is functional. The settings on record: read-out: Activity.
Assay [9] has as its system Candida albicans. Put plainly: Antifungal activity against Candida albicans A01 assessed as zone of inhibition at 5 mg/ml by agar well diffusion method. In kind it is functional. As to conditions: read-out: DIZ.
Assay [10] deals with Escherichia coli. Kind of assay: Antibacterial activity against Escherichia coli ATCC 35421 assessed as zone of inhibition at 1 mg/ml by agar well diffusion method. The assay is classed as functional. As to conditions: read-out: DIZ.
In assay [11] the test system is Pseudomonas aeruginosa. Kind of assay: Antibacterial activity against Pseudomonas aeruginosa M5 after 24 to 48 hrs by macro-broth dilution method. In kind it is functional.
For assay [12], the system named is Staphylococcus aureus. Put plainly: Antibacterial activity against methicillin-resistant Staphylococcus aureus ATCC 33591 after 24 to 48 hrs by macro-broth dilution method. In kind it is functional.
Assay [13] relates to Candida albicans. Put plainly: Antifungal activity against Candida albicans A01 assessed as zone of inhibition at 1 mg/ml by agar well diffusion method. The assay is classed as functional. The settings on record: read-out: DIZ.
Assay [14] has as its system HeLa. Put plainly: Cytotoxicity against human HeLa cells assessed as cell growth at 10^-6 M after 48 hrs by SRB assay relative to control. The assay is classed as functional. As to conditions: read-out: Activity.
Assay [15] relates to HeLa. Put plainly: Growth inhibition of human HeLa cells after 48 hrs by SRB assay. The assay is classed as functional.
Assay [16] has as its system Escherichia coli. Put plainly: Antibacterial activity against Escherichia coli ATCC 20732 after 24 to 48 hrs by macro-broth dilution method. The assay is classed as functional.
In assay [17] the test system is HeLa. Kind of assay: Cytotoxicity against human HeLa cells assessed as reduction in cell viability after 48 hrs by SRB assay. The assay is classed as functional, cell-based.
Assay [18] concerns HeLa. Put plainly: Cytotoxicity against human HeLa cells assessed as cell growth at 10^-5 M after 48 hrs by SRB assay relative to control. As to conditions: read-out: Activity. In kind it is functional.
Assay [19] concerns Escherichia coli. Put plainly: Antibacterial activity against Escherichia coli ATCC 35421 after 24 to 48 hrs by macro-broth dilution method. The assay is classed as functional.
Assay [20] has as its system Pichia kudriavzevii. Put plainly: Antifungal activity against Candida krusei G03 after 24 to 48 hrs by macro-broth dilution method. The assay is classed as functional.
Assay [21] concerns Nakaseomyces glabratus. Kind of assay: Antifungal activity against Candida glabrata H04 after 24 to 48 hrs by macro-broth dilution method. In kind it is functional.
The test system of assay [22] is Candida albicans. Put plainly: Antifungal activity against Candida albicans ATCC 10231 after 24 to 48 hrs by macro-broth dilution method. In kind it is functional.
In assay [23] the test system is Candida albicans. Put plainly: Antifungal activity against Candida albicans A01 after 24 to 48 hrs by macro-broth dilution method. In kind it is functional.
Assay [24] relates to Nakaseomyces glabratus. Kind of assay: Antifungal activity against Candida glabrata H05 after 24 to 48 hrs by macro-broth dilution method. In kind it is functional.
Assay [25] has as its system Pichia kudriavzevii. Kind of assay: Antifungal activity against Candida krusei G06 after 24 to 48 hrs by macro-broth dilution method. The assay is classed as functional.

With `CCOc1ccc2sc(S(C)(=O)=O)nc2c1S(=O)(=O)NC(C)(C)C`, the figures for the zone of inhibition at 5000 µg/mL in [1], in assay [3] and in assay [9] were 13 mm, 10 mm and at most 7 mm, respectively. Besides, the growth at 0.1 µM in assay [2] was determined as 97.9%. The minimum inhibitory concentration (MIC) in assay [4] amounted to 8 µg/mL (≈ 20.4 µM); in assay [5], 10 µg/mL (≈ 25.5 µM); in assay [7], 10 µg/mL (≈ 25.5 µM); in assay [11], 50 µg/mL (≈ 127 µM); in [12], 10 µg/mL (≈ 25.5 µM); in [16], 20 µg/mL (≈ 51 µM). This compound also showed an MIC in [19] of 20 µg/mL (≈ 51 µM). Moreover, the zone of inhibition at 1000 µg/mL in [6] is at most 7 mm; in [10] it was 9 mm; in assay [13], at most 7 mm. Further, the growth at 100 µM in [8] is -76.3%. Further, the growth at 1 µM in assay [14] worked out at 42.1%. Besides, growth in [15] was halved (GI50) at 0.6 µM. For the same compound, in assay [15], the LC50 was determined as 76.6 µM. The compound also registered a TGI in [15] of 38.6 µM. For the same compound, the “growth inhibition (GI)” value in assay [15] was “Dose-dependent effect”. In addition, the Activity result in assay [17] was “Dose-dependent effect”. In assay [18], the growth at 10 µM was -6.7%.
Regarding `COc1cccc2c1C(=O)c1c(O)c3c(c(O)c1C2=O)C[C@@](O)(C(=O)CO)C[C@@H]3O[C@H]1C[C@H](N)[C@H](O)[C@H](C)O1` [DOXORUBICIN HYDROCHLORIDE], in assay [2], the growth at 0.1 µM was -76.8%. Also, the growth at 100 µM in assay [8] is -84.6%. Further, the growth at 1 µM in [14] was -82.9%. Besides, in [15], the GI50 is below 0.1 µM and the TGI was below 0.1 µM. For the same compound, the growth at 10 µM in assay [18] is -84.1%.
On to `CS(=O)(=O)c1nc2cc(OCc3ccc(-c4ccccc4)cc3)ccc2s1`, for which the zone of inhibition at 5000 µg/mL in [1], in assay [3] and in [9] was at most 7 mm in each case. Further, the zone of inhibition at 1000 µg/mL in assay [6], in [10] and in assay [13] was at most 7 mm each time.
As to `OC(Cn1cncn1)(Cn1cncn1)c1ccc(F)cc1F` [FLUCONAZOLE], the MIC in assay [20] was determined as 2 µg/mL (≈ 6.53 µM); in assay [21], 2 µg/mL (≈ 6.53 µM); in assay [22], 4 µg/mL (≈ 13.1 µM); in assay [23], 4 µg/mL (≈ 13.1 µM); in assay [24] it was 2 µg/mL (≈ 6.53 µM); in [25], 2 µg/mL (≈ 6.53 µM).
Consider `CCOc1ccc2sc(S(C)(=O)=O)nc2c1S(=O)(=O)Nc1ccc([N+](=O)[O-])cc1`, for which the zone of inhibition at 5000 µg/mL in assay [1] was 16 mm; in assay [3], 10 mm; in assay [9], at most 7 mm. Further, in assay [2], the growth at 0.1 µM amounted to 98.3%. Further, the minimal inhibitory concentration (MIC) in assay [4] amounted to 10 µg/mL (≈ 21.9 µM); in assay [5] it was 10 µg/mL (≈ 21.9 µM); in assay [7] it was 10 µg/mL (≈ 21.9 µM); in assay [11], 50 µg/mL (≈ 109 µM); in assay [12] it was 10 µg/mL (≈ 21.9 µM); in assay [16], 20 µg/mL (≈ 43.7 µM). The minimum inhibitory concentration (MIC) in assay [19] was 20 µg/mL (≈ 43.7 µM). For the same compound, the zone of inhibition at 1000 µg/mL is 14 mm in assay [6], 9 mm in assay [10] and at most 7 mm in assay [13]. In [8], the growth at 100 µM was -67.8%. Besides, in assay [14], the growth at 1 µM was found to be 46.2%. The compound further yielded a 50% growth inhibitory concentration (GI50) in assay [15] of 0.22 µM. For the same compound, the LC50 in assay [15] stood at 81.5 µM. This compound also came in with a TGI in assay [15] of 40.8 µM. In addition, in [15], the “growth inhibition (GI)” value was “Dose-dependent effect”. In [17], the Activity result was “Dose-dependent effect”. Also, in assay [18], the growth at 10 µM was -12.3%.
Regarding `CCOc1ccc2sc(Cl)nc2c1`, the zone of inhibition at 5000 µg/mL in assay [1], in assay [3] and in assay [9] was at most 7 mm throughout. In addition, the zone of inhibition at 1000 µg/mL in assay [6], in assay [10] and in assay [13] was at most 7 mm each time.
For the compound `CCOc1ccc2sc(S(C)(=O)=O)nc2c1S(=O)(=O)NC(CC)CC`, the zone of inhibition at 5000 µg/mL in [1] was 21 mm; in [3], 10 mm; in assay [9], at most 7 mm. Further, the growth at 0.1 µM in assay [2] was 91.8%. The minimum inhibitory concentration (MIC) in assay [4] came out at 50 µg/mL (≈ 123 µM); in [5] it was 50 µg/mL (≈ 123 µM); in assay [7] it was 100 µg/mL (≈ 246 µM); in assay [11], 100 µg/mL (≈ 246 µM); in assay [12], 100 µg/mL (≈ 246 µM); in [16], 50 µg/mL (≈ 123 µM). Further, the MIC in assay [19] worked out at 50 µg/mL (≈ 123 µM). Moreover, the zone of inhibition at 1000 µg/mL in assay [6] was 13 mm; in assay [10] it was 9 mm; in assay [13] it was at most 7 mm. In addition, the growth at 100 µM in assay [8] was -65.8%. Further, in assay [14], the growth at 1 µM came to 89.4%. The concentration for 50% growth inhibition (GI50) in assay [15] amounted to 19.5 µM. Further, the LC50 in assay [15] was 87.4 µM. The compound also had a TGI in assay [15] of 53.5 µM. For the same compound, the “growth inhibition (GI)” value in assay [15] was “Dose-dependent effect”. Also, the Activity entry in assay [17] was “Dose-dependent effect”. Moreover, in [18], the growth at 10 µM turned out to be 35.6%.
